Data taken from ChEMBL document CHEMBL1159082, “Phenylacetic acid regioisomers possessing a N-difluoromethyl-1,2-dihydropyrid-2-one pharmacophore: evaluation as dual inhibitors of cyclooxygenases and 5-lipoxygenase with anti-inflammatory activity” (Bioorg Med Chem Lett, 2010).

What was measured:
[1] = tested on: Rattus norvegicus; test: Antiinflammatory activity against carrageenan-induced paw edema in rat at 30 mg/kg, po; type: functional
[2] = Inhibition of potato 5-Lipoxygenase by enzyme immuno assay; parameters: species or system Solanum tuberosum
[3] = biological target: T1, Prostaglandin G/H synthase 2 (Homo sapiens, UniProt P35354); test: Inhibition of human recombinant COX2 by enzyme immuno assay
T1 sequence (P35354 whole entry): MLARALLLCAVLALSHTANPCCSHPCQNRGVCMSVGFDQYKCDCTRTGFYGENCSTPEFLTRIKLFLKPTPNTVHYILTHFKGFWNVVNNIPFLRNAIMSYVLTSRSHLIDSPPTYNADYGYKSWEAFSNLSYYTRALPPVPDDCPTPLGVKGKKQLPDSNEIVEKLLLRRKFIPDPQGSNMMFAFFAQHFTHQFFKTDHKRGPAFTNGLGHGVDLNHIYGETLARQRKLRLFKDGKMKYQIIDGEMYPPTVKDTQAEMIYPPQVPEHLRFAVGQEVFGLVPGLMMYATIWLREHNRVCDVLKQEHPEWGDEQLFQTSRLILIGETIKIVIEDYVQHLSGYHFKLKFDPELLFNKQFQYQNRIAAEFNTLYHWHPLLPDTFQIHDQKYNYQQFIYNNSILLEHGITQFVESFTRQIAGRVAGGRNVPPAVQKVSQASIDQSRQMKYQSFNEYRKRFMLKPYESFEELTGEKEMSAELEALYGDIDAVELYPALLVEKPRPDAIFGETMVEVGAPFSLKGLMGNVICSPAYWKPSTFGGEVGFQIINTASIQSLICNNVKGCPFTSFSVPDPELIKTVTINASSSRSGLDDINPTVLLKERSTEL

[4] = biological target: T2, Prostaglandin G/H synthase 1 (Ovis aries, UniProt P05979)
T2 sequence (P05979 whole entry): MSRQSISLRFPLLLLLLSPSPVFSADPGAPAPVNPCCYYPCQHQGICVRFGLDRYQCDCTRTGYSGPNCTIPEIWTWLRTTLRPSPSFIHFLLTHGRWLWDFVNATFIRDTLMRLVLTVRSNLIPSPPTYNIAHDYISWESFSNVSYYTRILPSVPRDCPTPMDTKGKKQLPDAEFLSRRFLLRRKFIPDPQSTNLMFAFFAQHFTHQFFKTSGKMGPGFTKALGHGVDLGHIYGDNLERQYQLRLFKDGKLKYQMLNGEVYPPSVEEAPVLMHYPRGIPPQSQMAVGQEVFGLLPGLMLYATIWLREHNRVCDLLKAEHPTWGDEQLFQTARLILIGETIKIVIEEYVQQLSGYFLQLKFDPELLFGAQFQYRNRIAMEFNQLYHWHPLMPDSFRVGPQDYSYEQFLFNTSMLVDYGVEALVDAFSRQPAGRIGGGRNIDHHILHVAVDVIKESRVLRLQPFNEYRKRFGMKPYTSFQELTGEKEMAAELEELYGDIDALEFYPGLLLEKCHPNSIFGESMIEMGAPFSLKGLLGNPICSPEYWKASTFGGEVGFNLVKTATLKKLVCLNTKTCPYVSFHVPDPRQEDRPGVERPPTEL
Description: Inhibition of ovine COX1 by enzyme immuno assay

[5] = tested on: Rattus norvegicus; test: Antiinflammatory activity against carrageenan-induced paw edema in rat at 100 mg/kg, po; type: functional
[6] = tested on: Rattus norvegicus; test: Antiinflammatory activity against carrageenan-induced paw edema in rat at 150 mg/kg, po relative to ibuprofen; type: functional
[7] = tested on: Rattus norvegicus; test: Antiinflammatory activity against carrageenan-induced paw edema in rat at 150 mg/kg, ip; type: functional; conditions: route intraperitoneal
[8] = tested on: Rattus norvegicus; test: Antiinflammatory activity against carrageenan-induced paw edema in po dosed rat; type: functional

Row | Structure (SMILES) | IC50 [2] | IC50 [3] | IC50 [4] | other results
1 | CC(Cc1ccc(O)c(O)c1)C(C)Cc1ccc(O)c(O)c1 (configuration not stated) [NORDIHYDROGUAIARETIC ACID] |  |  |  | inhibition in vivo at 30 mg/kg [1]: 15.1%
2 | O=C(O)Cc1ccc(-c2ccn(C(F)F)c(=O)c2)cc1 | 3470 nM | 890 nM | 9600 nM | 
3 | CC(C(=O)O)c1ccccc1-c1ccn(C(F)F)c(=O)c1 (configuration not stated) | 2000 nM | 2600 nM | > 100000 nM | 
4 | O=C(O)Cc1cccc(-c2ccn(C(F)F)c(=O)c2)c1 | 370 nM | 11100 nM | > 100000 nM | inhibition in vivo at 100 mg/kg [5]: 11.2%
5 | O=C(O)Cc1ccccc1-c1ccn(C(F)F)c(=O)c1 | 200 nM | 860 nM | 5500 nM | inhibition in vivo at 150 mg/kg [6]: 19.9%; inhibition in vivo at 150 mg/kg [7]: 18.5%
6 | CC(C(=O)O)c1ccc(-c2ccn(C(F)F)c(=O)c2)cc1 (configuration not stated) | 3000 nM | 2400 nM | 15300 nM | 
7 | CC(C)Cc1ccc(C(C)C(=O)O)cc1 (configuration not stated) [IBUPROFEN] |  |  |  | ED50 [8]: 67.4 mg/kg
8 | O=C(O)/C=C/c1ccc(O)c(O)c1 [CAFFEIC ACID] | 4000 nM |  |  | inhibition in vivo at 30 mg/kg [1]: 8.2%
